In patent US20240101576A1, “HETEROCYCLIC INHIBITORS OF EGFR AND/OR HER2, FOR USE IN THE TREATMENT OF CANCER” (Scorpion Therapeutics, Inc., priority 2020, published 2024):

Assays:
Format in all cases: cell-based
EGFR WT (Ba/F3 cells) = target: T1, EGFR WT (Ba/F3 cells) (Homo sapiens, UniProt P00533); assay: Inhibitor activity on EGFR-dependent cell growth (CellTiter-Glo, 72 h), Ba/F3 EGFR WT; details: read-out: BaF3 WT IC50
T1 construct: expressed in transfected cells; host or cells: Ba/F3 (murine pro-B cells), retroviral transduction, puromycin selection, maintained with EGF
How it was run: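 This growth assay used Ba/F3 cells that depend on wild-type EGFR and are kept in EGF without IL3. Compounds were made up as 10 mM DMSO stocks and diluted 3-fold over 10 points. 120 nL went onto 600 cells/well. After 72 hours, 40 μL CellTiter-Glo was added and luminescence read on EnVision after 30 min.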

[1] = target: T2, EGFR exon 20 NPG Ins D770_N771 (Ba/F3 cells) (Homo sapiens, UniProt P00533, INS770NPG); assay: Inhibitor activity on EGFR-dependent cell growth (CellTiter-Glo, 72 h), Ba/F3 EGFR exon 20 NPG Ins; details: read-out: BaF3 NPG IC50
T2 construct: expressed in transfected cells; host or cells: Ba/F3 (murine pro-B cells), retroviral transduction, puromycin selection, IL3-independent pool
From the text: Example A. Inhibitor Activity on EGFR-Dependent Cell Growth
Cell lines are generated by transducing Ba/F3 cells with retroviruses containing vectors with EGFR WT, EGFR L858R, EGFR exon 19del, EGFR L858R/C797S, EGFR exon 20 NPG Ins D770_N771, EGFR exon 20 ASV Ins V769_D770, EGFR exon 20 SVD Ins D770_N771, or EGFR exon 20 FQEA Ins A763_V764 genes and a puromycin selection marker. Transduced cells are selected with puromycin for 7 days and are then be transferred into culture media without Interleukin 3 (IL3). EGFR WT cells are maintained with supplemental EGF. Surviving cells are confirmed to express EGFR by Western blot and maintained as a pool. The IC50 date were included in Table 6 and Table 7.
1.1 Cells are harvested from flask into cell culture medium and the cell number counted.
1.2 Cells are diluted with culture medium to the desired density and 40 μL of cell suspension is added into each well of 384-well cell culture plate and the seeding density is 800 (FQEA, exon 19del), 600 (WT, NPG, L858R/C797S), or 400 (ASV, SVD, L858R) cells/well.
2 Compound Preparation and Treatment
2.1 Test compounds are dissolved to 10 mM in a DMSO stock solution. 45 μL of stock solution is transferred to a 384 polypropylene plate (pp-plate). Perform 3-fold, 10-point dilution via transferring 15 μL compound into 30 μL DMSO using a TECAN (EVO200) liquid handler.
2.2 Spin plates at room temperature at 1,000 RPM for 1 minute.
2.3 Transfer 120 nL of diluted compound from compound source plate into the cell plate.
2.4 After compound treatment for 72 hours, perform CTG detection for compound treatment plates as described in “Detection” section.
3.1 Plates are removed from incubators and equilibrated at room temperature for 15 minutes.
3.2 Thaw the CellTiter Glo reagents and allow to equilibrate to room temperature before the experiment.
3.3 Add 40 μL of CellTiter-Glo reagent into each well (at 1:1 to culture medium). Then place the plates at room temperature for 30 min followed by reading on EnVision.
4.1 Inhibition activity is calculated following the formula below:
% Inhibition=100×(LumHC−LumSample)/(LumHC−LumLC) • where HC is obtained from cells treated with 0.1% DMSO only; and LC is obtained from culture medium only.
4.2 2. Calculate the IC50 by fitting the Curve using Xlfit (v5.3.1.3), equation 201.
Y=Bottom+(Top−Bottom)/(1+10^((Log IC50−X)*HillSlope))

[2] = target: T3, EGFR exon 20 ASV Ins V769_D770 (Ba/F3 cells) (Homo sapiens, UniProt P00533, INS769ASV); assay: Inhibitor activity on EGFR-dependent cell growth (CellTiter-Glo, 72 h), Ba/F3 EGFR exon 20 ASV Ins; details: read-out: BaF3 ASV IC50
T3 construct: expressed in transfected cells; host or cells: Ba/F3 (murine pro-B cells), retroviral transduction, puromycin selection, IL3-independent pool
How it was run: (§1)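 IC50s derive from a sigmoidal dose–response fit of CellTiter-Glo signal. The signal was normalised between […]-treated cells and cell-free medium. Ba/F3 mutant-EGFR cells, seeded at 400–800/well depending on the line, had 72 h of exposure to a 10-point, 3-fold compound series.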

[3] = target: T4, EGFR exon 20 FQEA Ins A763_V764 (Ba/F3 cells) (Homo sapiens, UniProt P00533, INS763FQEA); assay: Inhibitor activity on EGFR-dependent cell growth (CellTiter-Glo, 72 h), Ba/F3 EGFR exon 20 FQEA Ins; details: read-out: BaF3 FQEA IC50
T4 construct: expressed in transfected cells; host or cells: Ba/F3 (murine pro-B cells), retroviral transduction, puromycin selection, IL3-independent pool
How it was run: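 Compounds, serially diluted 3-fold over 10 points in DMSO and added at 120 nL per well, act on Ba/F3 EGFR-mutant cells for 72 h. Seeding is 800 (exon 19del, FQEA), 600 (L858R/C797S) or 400 (L858R) cells/well. CTG luminescence is fitted with a four-parameter logistic curve to give IC50.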

[4] = target: T5, EGFR exon 20 SVD Ins D770_N771 (Ba/F3 cells) (Homo sapiens, UniProt P00533, INS770SVD); assay: Inhibitor activity on EGFR-dependent cell growth (CellTiter-Glo, 72 h), Ba/F3 EGFR exon 20 SVD Ins; details: read-out: BaF3 SVD IC50
T5 construct: expressed in transfected cells; host or cells: Ba/F3 (murine pro-B cells), retroviral transduction, puromycin selection, IL3-independent pool
How it was run: as §1

T1 sequence (P00533 25-1210): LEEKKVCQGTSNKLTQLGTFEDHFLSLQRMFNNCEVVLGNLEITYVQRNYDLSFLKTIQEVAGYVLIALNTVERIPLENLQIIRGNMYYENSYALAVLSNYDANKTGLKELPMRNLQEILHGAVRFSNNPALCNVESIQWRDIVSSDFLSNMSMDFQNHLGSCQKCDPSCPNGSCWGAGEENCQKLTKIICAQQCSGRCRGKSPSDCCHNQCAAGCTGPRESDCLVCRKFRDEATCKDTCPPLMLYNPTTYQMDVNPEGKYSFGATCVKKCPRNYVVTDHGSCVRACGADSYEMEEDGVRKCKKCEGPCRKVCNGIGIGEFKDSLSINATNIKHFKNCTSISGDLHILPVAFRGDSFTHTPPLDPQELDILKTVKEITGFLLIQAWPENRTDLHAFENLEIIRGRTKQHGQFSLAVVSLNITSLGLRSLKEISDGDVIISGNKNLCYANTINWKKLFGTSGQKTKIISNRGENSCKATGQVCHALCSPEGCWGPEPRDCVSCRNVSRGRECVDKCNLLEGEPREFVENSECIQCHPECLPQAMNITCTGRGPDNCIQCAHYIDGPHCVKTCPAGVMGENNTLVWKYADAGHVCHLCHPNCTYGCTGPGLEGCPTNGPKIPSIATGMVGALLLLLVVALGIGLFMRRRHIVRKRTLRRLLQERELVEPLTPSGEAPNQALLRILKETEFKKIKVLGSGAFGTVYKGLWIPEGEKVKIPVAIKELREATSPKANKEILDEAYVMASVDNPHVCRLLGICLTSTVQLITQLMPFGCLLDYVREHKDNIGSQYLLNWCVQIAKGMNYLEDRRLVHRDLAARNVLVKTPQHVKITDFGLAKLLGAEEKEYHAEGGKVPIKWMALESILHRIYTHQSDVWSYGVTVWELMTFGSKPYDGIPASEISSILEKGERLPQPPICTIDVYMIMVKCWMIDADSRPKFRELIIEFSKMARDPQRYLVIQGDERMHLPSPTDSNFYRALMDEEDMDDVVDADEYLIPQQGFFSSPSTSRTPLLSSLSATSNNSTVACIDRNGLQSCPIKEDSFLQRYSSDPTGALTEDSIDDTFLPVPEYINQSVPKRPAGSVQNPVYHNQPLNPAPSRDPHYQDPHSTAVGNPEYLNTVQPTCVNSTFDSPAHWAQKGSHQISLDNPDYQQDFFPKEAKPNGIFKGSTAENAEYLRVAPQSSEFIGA
T2 sequence (P00533 with tags, fused parts or gaps INS770NPG): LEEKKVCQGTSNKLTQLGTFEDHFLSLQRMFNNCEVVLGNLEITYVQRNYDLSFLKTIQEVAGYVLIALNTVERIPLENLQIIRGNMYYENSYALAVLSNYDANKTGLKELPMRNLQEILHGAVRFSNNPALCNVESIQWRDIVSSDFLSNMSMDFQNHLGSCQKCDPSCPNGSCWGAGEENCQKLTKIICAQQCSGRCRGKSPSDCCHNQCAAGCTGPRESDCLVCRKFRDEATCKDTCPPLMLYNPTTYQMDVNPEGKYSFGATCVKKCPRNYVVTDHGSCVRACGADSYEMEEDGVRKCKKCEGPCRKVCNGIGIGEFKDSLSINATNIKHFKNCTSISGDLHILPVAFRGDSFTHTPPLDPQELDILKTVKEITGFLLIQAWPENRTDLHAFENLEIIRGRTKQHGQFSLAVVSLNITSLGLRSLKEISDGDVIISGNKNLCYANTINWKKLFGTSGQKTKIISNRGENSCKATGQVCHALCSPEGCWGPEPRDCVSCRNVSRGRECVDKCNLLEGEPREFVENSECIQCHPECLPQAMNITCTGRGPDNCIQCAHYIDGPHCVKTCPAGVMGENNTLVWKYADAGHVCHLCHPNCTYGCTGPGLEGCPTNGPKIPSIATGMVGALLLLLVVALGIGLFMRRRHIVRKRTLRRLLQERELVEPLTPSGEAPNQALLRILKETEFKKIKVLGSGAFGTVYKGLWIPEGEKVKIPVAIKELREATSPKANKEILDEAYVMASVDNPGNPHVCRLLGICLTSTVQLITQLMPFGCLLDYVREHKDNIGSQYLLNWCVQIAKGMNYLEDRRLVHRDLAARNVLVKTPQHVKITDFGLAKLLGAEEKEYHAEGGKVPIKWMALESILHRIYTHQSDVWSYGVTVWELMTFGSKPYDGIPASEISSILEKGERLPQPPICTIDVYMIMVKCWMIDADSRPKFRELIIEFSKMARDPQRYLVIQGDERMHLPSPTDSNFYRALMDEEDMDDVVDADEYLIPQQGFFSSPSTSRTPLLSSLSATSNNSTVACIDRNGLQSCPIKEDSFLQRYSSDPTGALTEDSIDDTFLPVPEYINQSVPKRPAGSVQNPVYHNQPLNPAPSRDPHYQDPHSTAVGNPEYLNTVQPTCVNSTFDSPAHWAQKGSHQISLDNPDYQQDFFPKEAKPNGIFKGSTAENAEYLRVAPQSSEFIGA
T3 sequence (P00533 with tags, fused parts or gaps INS769ASV): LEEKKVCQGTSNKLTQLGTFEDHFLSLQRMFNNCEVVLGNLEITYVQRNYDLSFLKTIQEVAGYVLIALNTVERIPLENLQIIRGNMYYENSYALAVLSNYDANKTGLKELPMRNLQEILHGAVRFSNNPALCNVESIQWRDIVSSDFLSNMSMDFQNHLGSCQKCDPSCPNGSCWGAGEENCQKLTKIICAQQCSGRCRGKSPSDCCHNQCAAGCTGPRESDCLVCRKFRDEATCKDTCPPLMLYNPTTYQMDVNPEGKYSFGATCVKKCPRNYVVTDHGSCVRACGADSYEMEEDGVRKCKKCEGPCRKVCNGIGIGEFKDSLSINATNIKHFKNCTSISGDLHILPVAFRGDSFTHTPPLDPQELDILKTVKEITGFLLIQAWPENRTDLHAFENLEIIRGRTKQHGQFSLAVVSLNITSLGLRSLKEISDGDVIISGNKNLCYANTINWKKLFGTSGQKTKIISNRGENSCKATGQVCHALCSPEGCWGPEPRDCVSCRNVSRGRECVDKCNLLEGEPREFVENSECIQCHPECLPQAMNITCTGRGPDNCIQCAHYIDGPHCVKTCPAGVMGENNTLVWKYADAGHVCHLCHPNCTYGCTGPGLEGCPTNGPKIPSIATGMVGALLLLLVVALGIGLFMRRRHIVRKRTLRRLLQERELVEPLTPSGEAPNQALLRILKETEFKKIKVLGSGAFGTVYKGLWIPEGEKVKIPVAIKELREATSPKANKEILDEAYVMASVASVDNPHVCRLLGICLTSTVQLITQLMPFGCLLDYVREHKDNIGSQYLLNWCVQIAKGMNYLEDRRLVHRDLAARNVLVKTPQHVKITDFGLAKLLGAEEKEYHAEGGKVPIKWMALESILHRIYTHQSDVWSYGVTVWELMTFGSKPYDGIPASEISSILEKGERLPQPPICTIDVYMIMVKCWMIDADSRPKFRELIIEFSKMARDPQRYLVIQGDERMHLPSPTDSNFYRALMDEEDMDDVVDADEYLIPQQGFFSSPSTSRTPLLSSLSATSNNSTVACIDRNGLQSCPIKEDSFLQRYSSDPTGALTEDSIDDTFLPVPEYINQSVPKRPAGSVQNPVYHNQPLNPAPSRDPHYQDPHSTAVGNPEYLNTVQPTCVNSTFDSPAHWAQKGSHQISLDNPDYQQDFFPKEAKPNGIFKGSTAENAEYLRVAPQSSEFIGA
T5 sequence (P00533 with tags, fused parts or gaps INS770SVD): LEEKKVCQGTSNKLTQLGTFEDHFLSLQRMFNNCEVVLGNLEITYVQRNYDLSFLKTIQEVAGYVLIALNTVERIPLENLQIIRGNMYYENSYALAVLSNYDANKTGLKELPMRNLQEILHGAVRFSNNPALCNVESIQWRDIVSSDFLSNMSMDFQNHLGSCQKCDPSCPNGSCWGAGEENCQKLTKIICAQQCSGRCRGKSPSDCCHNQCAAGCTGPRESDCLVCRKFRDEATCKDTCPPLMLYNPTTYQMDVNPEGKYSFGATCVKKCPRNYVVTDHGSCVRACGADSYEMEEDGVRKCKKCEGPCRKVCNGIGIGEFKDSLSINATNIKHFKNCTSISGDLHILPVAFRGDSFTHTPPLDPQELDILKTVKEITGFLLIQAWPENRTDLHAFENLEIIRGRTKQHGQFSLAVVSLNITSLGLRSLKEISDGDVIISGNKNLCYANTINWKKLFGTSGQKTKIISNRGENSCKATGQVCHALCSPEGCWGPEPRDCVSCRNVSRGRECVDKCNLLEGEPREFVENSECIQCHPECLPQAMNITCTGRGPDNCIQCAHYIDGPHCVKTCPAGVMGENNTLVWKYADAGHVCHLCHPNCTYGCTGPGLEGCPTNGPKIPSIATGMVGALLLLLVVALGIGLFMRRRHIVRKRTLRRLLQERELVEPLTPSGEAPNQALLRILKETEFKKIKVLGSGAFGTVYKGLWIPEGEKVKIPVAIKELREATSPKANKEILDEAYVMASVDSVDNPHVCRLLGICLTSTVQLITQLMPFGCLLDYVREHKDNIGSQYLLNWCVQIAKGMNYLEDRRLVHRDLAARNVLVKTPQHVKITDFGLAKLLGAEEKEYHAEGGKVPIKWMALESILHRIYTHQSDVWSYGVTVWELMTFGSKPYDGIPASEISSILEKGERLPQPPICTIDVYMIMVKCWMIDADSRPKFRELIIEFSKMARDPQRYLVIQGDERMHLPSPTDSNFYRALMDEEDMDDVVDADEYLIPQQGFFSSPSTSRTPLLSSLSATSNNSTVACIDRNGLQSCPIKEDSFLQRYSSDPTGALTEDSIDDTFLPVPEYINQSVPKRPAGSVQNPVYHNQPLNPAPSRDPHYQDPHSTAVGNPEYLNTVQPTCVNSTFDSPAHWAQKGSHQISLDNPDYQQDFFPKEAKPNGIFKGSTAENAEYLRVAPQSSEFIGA

| SMILES | IC50 (EGFR WT (Ba/F3 cells)) [µM] | IC50 [1] [µM] | IC50 [2] [µM] | IC50 [3] [µM] | IC50 [4] [µM] |
| --- | --- | --- | --- | --- | --- |
| COCC[C@H]1CNC(=O)c2c1[nH]c(-c1ccncc1F)c2Nc1cccc(F)c1OC [421a] | > 1 | 0.1 to 1 | 0.1 to 1 | 0.1 to 1 | 0.1 to 1 |
| COc1ncc2nccc(-c3[nH]c4c(c3Nc3cccc(F)c3OC)C(=O)NC(C(F)(F)F)C4)c2n1 (centres unmarked) [Compound 595, 3-[(3-fluoro-2-methoxyphenyl)amino]-2-{2-methoxypyrido[3,2-d]pyrimidin-8-yl}-6-(trifluoromethyl)-1H,5H,6H,7H-pyrrolo[3,2-c]pyridin-4-one] | 0.1 to 1 | 0.1 to 1 | 0.1 to 1 |  | 0.1 to 1 |
| CC#CC(=O)N1CCC2(CC1)CNC(=O)c1c2[nH]c(-c2ccncc2F)c1Nc1cccc(F)c1OC [Compound 609, 1-(but-2-ynoyl)-3′-[(3-fluoro-2-methoxyphenyl)amino]-2′-(3-fluoropyridin-4-yl)-5′,6′-dihydro-1′H-spiro[piperidine-4,7′-pyrrolo[3,2-c]pyridin]-4′-one] | > 1 | > 1 | 0.1 to 1 |  | 0.1 to 1 |
| COCC[C@@H]1CNC(=O)c2c1[nH]c(-c1ccncc1F)c2Nc1cccc(Cl)c1OC [Compound 746] | 0.1 to 1 | < 0.1 |  | < 0.1 |  |
| COc1c(Cl)cccc1Nc1c(-c2ccnc(-c3cnn(C)c3)n2)[nH]c2c1C(=O)NCC2 [compound 121] | 0.1 to 1 | < 0.1 | < 0.1 |  | < 0.1 |
| COc1c(F)cccc1Nc1c(-c2ccnc3c(N)noc23)[nH]c2c1C(=O)NCC2 [compound 523, 2-{3-amino-[1,2]oxazolo[4,5-b]pyridin-7-yl}-3-[(3-fluoro-2-methoxyphenyl)amino]-1H,5H,6H,7H-pyrrolo[3,2-c]pyridin-4-one; trifluoroacetic acid] | 0.1 to 1 | < 0.1 | 0.1 to 1 |  | < 0.1 |
| COc1c(Cl)cccc1Nc1c(-c2ccnc(Nc3ccn(CC(C)(C)O)n3)n2)[nH]c2c1C(=O)NCC2 [compound 537, 3-[(3-chloro-2-methoxyphenyl)amino]-2-(2-{[1-(2-hydroxy-2-methylpropyl)pyrazol-3-yl]amino}pyrimidin-4-yl)-1H,5H,6H,7H-pyrrolo[3,2-c]pyridin-4-one] | 0.1 to 1 | < 0.1 | < 0.1 |  | < 0.1 |
| CCn1nncc1Nc1nccc(-c2[nH]c3c(c2Nc2cccc(Cl)c2OC)C(=O)NCC3)n1 [compound 538, 3-[(3-chloro-2-methoxyphenyl)amino]-2-{2-[(3-ethyl-1,2,3-triazol-4-yl)amino]pyrimidin-4-yl}-1H,5H,6H,7H-pyrrolo[3,2-c]pyridin-4-one] | 0.1 to 1 | < 0.1 | < 0.1 |  | < 0.1 |
| COc1c(Cl)cccc1Nc1c(-c2ccnc(Nc3cnnn3CS(C)(=O)=O)n2)[nH]c2c1C(=O)NCC2 [compound 539, 3-[(3-chloro-2-methoxyphenyl)amino]-2-(2-{[3-(methanesulfonylmethyl)-1,2,3-triazol-4-yl]amino}pyrimidin-4-yl)-1H,5H,6H,7H-pyrrolo[3,2-c]pyridin-4-one] | > 1 | 0.1 to 1 | 0.1 to 1 |  | 0.1 to 1 |
| COc1c(Cl)cccc1Nc1c(-c2ccnc(-c3ccnnc3)n2)[nH]c2c1C(=O)NCC2 [compound 542, 3-[(3-chloro-2-methoxyphenyl)amino]-2-[2-(pyridazin-4-yl)pyrimidin-4-yl]-1H,5H,6H,7H-pyrrolo[3,2-c]pyridin-4-one] | > 1 | 0.1 to 1 | > 1 |  | > 1 |
| COc1c(Cl)cccc1Nc1c(-c2ccnc(-c3cnn(C)n3)n2)[nH]c2c1C(=O)NCC2 [compound 543, 3-[(3-chloro-2-methoxyphenyl)amino]-2-[2-(2-methyl-1,2,3-triazol-4-yl)pyrimidin-4-yl]-1H,5H,6H,7H-pyrrolo[3,2-c]pyridin-4-one] | > 1 | < 0.1 | 0.1 to 1 |  | < 0.1 |
| COc1c(Cl)cccc1Nc1c(-c2ccnc(-c3cn(C)nn3)n2)[nH]c2c1C(=O)NCC2 [compound 545, 3-[(3-chloro-2-methoxyphenyl)amino]-2-[2-(1-methyl-1,2,3-triazol-4-yl)pyrimidin-4-yl]-1H,5H,6H,7H-pyrrolo[3,2-c]pyridin-4-one] | > 1 | < 0.1 | 0.1 to 1 |  | 0.1 to 1 |
| COc1c(Cl)cccc1Nc1c(-c2ccnc(-c3ccncn3)n2)[nH]c2c1C(=O)NCC2 [compound 546, 2-{[2,4′-bipyrimidin]-4-yl}-3-[(3-chloro-2-methoxyphenyl)amino]-1H,5H,6H,7H-pyrrolo[3,2-c]pyridin-4-one] | > 1 | 0.1 to 1 | > 1 |  | 0.1 to 1 |
| COc1c(F)cccc1Nc1c(-c2ccnc(Nc3cnnn3C)n2)[nH]c2c1C(=O)NCC2 [compound 591, 3-[(3-fluoro-2-methoxyphenyl)amino]-2-{2-[(3-methyl-1,2,3-triazol-4-yl)amino]pyrimidin-4-yl}-1H,5H,6H,7H-pyrrolo[3,2-c]pyridin-4-one] | 0.1 to 1 | < 0.1 | < 0.1 |  | < 0.1 |
| COc1c(Cl)cccc1Nc1c(-c2ccnc(Nc3nnn(C)c3C)n2)[nH]c2c1C(=O)NCC2 [compound 607, 3-[(3-chloro-2-methoxyphenyl)amino]-2-{2-[(1,5-dimethyl-1,2,3-triazol-4-yl)amino]pyrimidin-4-yl}-1H,5H,6H,7H-pyrrolo[3,2-c]pyridin-4-one] | > 1 | > 1 | > 1 |  | > 1 |
| COc1c(F)cccc1Nc1c(-c2ccnc(Nc3nnn(C)c3C)n2)[nH]c2c1C(=O)NCC2 [compound 608, 2-{2-[(1,5-dimethyl-1,2,3-triazol-4-yl)amino]pyrimidin-4-yl}-3-[(3-fluoro-2-methoxyphenyl)amino]-1H,5H,6H,7H-pyrrolo[3,2-c]pyridin-4-one] | > 1 | > 1 | > 1 |  | > 1 |
| C=CC(=O)N1CCC2(CC1)CNC(=O)c1c2[nH]c(-c2ccnc(C)n2)c1Nc1cc(F)cc(Cl)c1OC [compound 642] | 0.1 to 1 | < 0.1 | < 0.1 |  | < 0.1 |
| C=CC(=O)NCC[C@H]1CNC(=O)c2c1[nH]c(-c1ccnc(C)n1)c2Nc1cccc(Cl)c1OC [compound 653] | > 1 | 0.1 to 1 | 0.1 to 1 |  | 0.1 to 1 |
| C=CC(=O)NCC[C@@H]1CNC(=O)c2c1[nH]c(-c1ccnc(C)n1)c2Nc1cccc(Cl)c1OC [compound 654] | 0.1 to 1 | < 0.1 | < 0.1 |  | < 0.1 |
| COc1c(Cl)cccc1Nc1c(-c2ccnc(C)n2)[nH]c2c(C[C@H]3COCCO3)c[nH]c(=O)c12 [compound 659] | > 1 | < 0.1 | < 0.1 |  | < 0.1 |
